In patent US11332477B2, “Nitrogen containing heterocycle substituted benzoxazine oxazolidinone compound and preparation method and use thereof” (INSTITUTE OF MATERIA MEDICA, CHINESE ACADEMY OF MEDICAL …, priority 2017, dated 2022):
Values after ≈ are worked out from the molar mass of the structure shown.

What was measured:
[1] = tested on: clinically isolated 12525 strains (rifampicin- and isoniazid-resistant strains); assay: microbe, parasite or virus in culture; assay type: cell-based; conditions: Mycobacterium tuberculosis, read-out: MIC 12525
[2] = tested on: Linezolid-resistant strain; assay: microbe, parasite or virus in culture; assay type: cell-based; conditions: Mycobacterium tuberculosis, read-out: MIC Linezolid-resistant strain

For `CC(=O)NC[C@@H]1OC(=O)N2c3cc(F)c(N4CCSCC4)cc3OC[C@@H]12` [Compound 4, N-(((3S,3aS)-8-Fluoro-1-oxo-7-thiomorpholino-3a,4-dihydro-1H,3H-benzo[b]oxazolo[3,4-d][1,4]oxazin-3-yl)methyl)acetamide], which MIC [1] is on record?
Its MIC is under 0.016 µg/mL.

And the MIC [2]?
Its MIC is 0.246 µg/mL (≈ 0.645 µM).

`NNC(=O)c1ccncc1` [isoniazid] was tested. Which MIC [1] did it give?
The MIC was over 40 µg/mL.

What about the MIC [2] of the same molecule?
Its MIC is 0.032 µg/mL (≈ 0.233 µM).

How did the MIC [1] turn out when `CC(=O)NC[C@@H]1OC(=O)N2c3cc(F)c(N4CC[S+]([O-])CC4)cc3OC[C@@H]12` [Compound 23, N-(((3S,3aS)-8-Fluoro-1-oxo-7-(1-oxidothiomorpholino)-3a,4-dihydro-1H,3H-benzo[b]oxazolo[3,4-d][1,4]oxazin-3-yl)methyl)acetamide] was run?
The MIC was 0.053 µg/mL (≈ 0.133 µM).

`CO[C@H]1/C=C/O[C@@]2(C)Oc3c(C)c(O)c4c(O)c(c(/C=N/N5CCN(C)CC5)c(O)c4c3C2=O)NC(=O)/C(C)=C\C=C\[C@H](C)[C@H](O)[C@@H](C)[C@@H](O)[C@@H](C)[C@H](OC(C)=O)[C@@H]1C` [rifampicin] was tested. Which MIC [1] did it give?
Its MIC is 22.4 µg/mL (≈ 27.2 µM).

What about the MIC [2] of the same molecule?
The MIC was 0.073 µg/mL (≈ 0.0887 µM).

`CC(=O)NC[C@H]1OC(=O)N2c3cc(F)c(N4CCSCC4)cc3OC[C@H]12` [Compound 28, N-(((3R,3aR)-8-Fluoro-1-oxo-7-thiomorpholino-3a,4-dihydro-1H,3H-benzo[b]oxazolo[3,4-d][1,4]oxazin-3-yl)methyl)acetamide] was tested. Which MIC [1] did it give?
Its MIC is 0.047 µg/mL (≈ 0.123 µM).

And the MIC [2]?
The MIC was 3.02 µg/mL (≈ 7.91 µM).

For `CC(=O)NC[C@H]1CN(c2ccc(N3CCOCC3)c(F)c2)C(=O)O1` [Linezolid, reference compound], which MIC [1] is on record?
The MIC was 0.138 µg/mL (≈ 0.409 µM).

And the MIC [2]?
The MIC was 4 µg/mL (≈ 11.9 µM).

For `CC(=O)NC[C@@H]1OC(=O)N2c3ccc(N4CCOCC4)cc3OC[C@@H]12` [Compound VII, reference compound], which MIC [1] is on record?
The MIC was 0.119 µg/mL (≈ 0.343 µM).

And the MIC [2]?
Its MIC is 21.6 µg/mL (≈ 62.2 µM).
